Here are results for two compounds from PMC6956098 (2019).

Assay [1] concerns VDBA14 aptamer, immobilized on microarray (DNA, aptamer) AGCAGCACAGAGGTCATGGGGGGTGTGACTTTGGTGTGCCTATGCGTGCTACGGAA
Description: microarray fluorescence, displacement of Cy5-oligonucleotide. To be noted: 100 mM NaCl, 5 mM KCl, 2 mM MgCl2, 1 mM CaCl2; 20 mM Tris-HCl pH 7.6; tracer displaced: 50 nM 5'-Cy5-AAAGTCACAC (O3); 78% maximal reduction at 2 μM.

Assay [2] concerns VDBA14 aptamer, 5'-Cy5-labeled (DNA, aptamer) AGCAGCACAGAGGTCATGGGGGGTGTGACTTTGGTGTGCCTATGCGTGCTACGGAA
Nature of the assay: microscale thermophoresis. To be noted: 100 mM NaCl, 5 mM KCl, 2 mM MgCl2, 1 mM CaCl2, 20 mM Tris-HCl pH 7.6, 10% ethanol, 35 °C. On the technique in general: In MST a laser heats a spot of the sample, and binding alters the fluorescence response.

Assay [3] concerns VDBA14 aptamer, 5'-NH2-modified (in solution) (DNA, aptamer) AGCAGCACAGAGGTCATGGGGGGTGTGACTTTGGTGTGCCTATGCGTGCTACGGAA
Description: microscale thermophoresis, displacement of Cy5-oligonucleotide. Particulars: 100 mM NaCl, 5 mM KCl, 2 mM MgCl2, 1 mM CaCl2, pH 7.6, 35 °C, tracer displaced: 10 nM 5'-Cy5-AAAGTCACAC (O3), 10 nM aptamer.

`C=C1CC[C@H](O)C/C1=C/C=C1\CCC[C@]2(C)[C@@H]([C@H](C)CCCC(C)(C)O)CC[C@@H]12`: in assay [1], the binding entry is “yes”. For the same compound, the Kd (usually the constant that tells how readily two partners part at equilibrium) in assay [2] (no binding observed at room temperature) came out at 14.99 nM. In addition, the apparent Kd (commonly the concentration giving half-maximal binding under the conditions of the assay) in assay [3] was 1 ± 0.18 nM.

Take `C=C1CC[C@H](O)C/C1=C/C=C1\CCC[C@]2(C)[C@@H]([C@H](C)CCCC(C)C)CC[C@@H]12`: in assay [2] (highest concentration 10 μM), the binding result is given as “no”.
